Among the data in ChEMBL document CHEMBL4043168, “The design and SAR of a novel series of 2-aminopyridine based LRRK2 inhibitors” (Bioorg Med Chem Lett, 2017) are inhibition values, retold here.

A word on the inhibition: it is the drop in the measured response relative to a control, in per cent.

Experiment [1] deals with Serine/threonine-protein kinase ULK1 (Homo sapiens) (UniProt O75385). Kind of experiment: Inhibition of ULK1 conserved Lys2 (DLKPQNILLSNPAGR) in human PBMC at 1 uM.
The target of experiment [2] is Mitogen-activated protein kinase kinase kinase 4 (Homo sapiens) (UniProt Q9Y6R4). As to the kind of experiment: Inhibition of MAP3K4 conserved Lys2 (DIKGANIFLTSSGLIK) in human PBMC at 1 uM.
Experiment [3] concerns the target Serine/threonine-protein kinase Nek8 (Homo sapiens) (UniProt Q86SG6). Kind of experiment: Inhibition of NEK8 conserved Lys2 (DLKTQNILLDK) in human PBMC at 1 uM.
In experiment [4] the target is Dual specificity mitogen-activated protein kinase kinase 1 (Homo sapiens) (UniProt Q02750). As to the kind of experiment: Inhibition of MAP2K1 conserved Lys2 (IMHRDVKPSNILVNSR) in human PBMC at 0.1 uM.
Experiment [5] has as its target Myosin light chain kinase, smooth muscle (Homo sapiens) (UniProt Q15746). As to the kind of experiment: Inhibition of smMLCK conserved Lys1 (VWAGKFFK) in human PBMC at 1 uM.
Experiment [6] deals with MAP/microtubule affinity-regulating kinase 3 (Homo sapiens) (UniProt P27448). As to the kind of experiment: Inhibition of MARK3 conserved Lys1 (EVAIKIIDK) in human PBMC at 0.1 uM.
For experiment [7], the target named is Serine/threonine-protein kinase Chk2 (Homo sapiens) (UniProt O96017). Kind of experiment: Inhibition of CHK2 labeling at conserved Lys1 (VAIKIISK) in human PBMC at 0.1 uM.
Experiment [8] addresses Calcium/calmodulin-dependent protein kinase type II subunit gamma (Homo sapiens) (UniProt Q13555). As to the kind of experiment: Inhibition of CaMK2g labeling at conserved Lys1 (TSTQEYAAKIINTK) in human PBMC at 0.1 uM.
Experiment [9] deals with Serine/threonine-protein kinase TAO2 (Homo sapiens) (UniProt Q9UL54). As to the kind of experiment: Inhibition of TAO2 conserved Lys2 (DVKAGNILLSEPGLVK) in human PBMC at 1 uM.
In experiment [10] the target is T1, Interleukin-1 receptor-associated kinase 4 (Homo sapiens) (UniProt Q9NWZ3).
T1 sequence (whole entry): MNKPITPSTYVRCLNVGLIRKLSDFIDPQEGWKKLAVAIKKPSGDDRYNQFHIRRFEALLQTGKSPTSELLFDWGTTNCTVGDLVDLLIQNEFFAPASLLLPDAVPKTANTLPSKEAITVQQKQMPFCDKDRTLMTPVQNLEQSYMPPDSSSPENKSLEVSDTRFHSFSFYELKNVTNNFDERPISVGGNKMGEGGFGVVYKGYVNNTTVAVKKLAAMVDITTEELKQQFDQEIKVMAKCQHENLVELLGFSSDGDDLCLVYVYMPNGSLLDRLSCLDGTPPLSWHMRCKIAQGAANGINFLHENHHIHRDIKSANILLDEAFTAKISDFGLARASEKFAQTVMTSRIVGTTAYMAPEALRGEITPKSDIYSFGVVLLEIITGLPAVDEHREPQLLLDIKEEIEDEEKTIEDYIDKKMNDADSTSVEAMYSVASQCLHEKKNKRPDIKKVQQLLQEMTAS
Kind of experiment: Inhibition of IRAK4 conserved Lys2 (DIKSANILLDEAFTAK) in human PBMC at 1 uM.

Experiment [11] has as its target Mitogen-activated protein kinase kinase kinase kinase 2 (Homo sapiens) (UniProt Q12851). Kind of experiment: Inhibition of GCK conserved Lys2 (DIKGANLLLTLQGDVK) in human PBMC at 0.1 uM.
The target in experiment [12] is Serine/threonine-protein kinase WNK3 (Homo sapiens) (UniProt Q9BYP7). Kind of experiment: Inhibition of Wnk3 conserved Lys2 (DLKCDNIFITGPTGSVK) in human PBMC at 1 uM.
Experiment [13] addresses Serine/threonine-protein kinase SMG1 (Homo sapiens) (UniProt Q96Q15). As to the kind of experiment: Inhibition of SMG1 ATP binding site (SYPYLFKGLEDLHLDER) in human PBMC at 1 uM.
In experiment [14] the target is Ribosomal protein S6 kinase beta-2 (Homo sapiens) (UniProt Q9UBS0). As to the kind of experiment: Inhibition of p70S6Kb ATP binding site (GGYGKVFQVR) in human PBMC at 1 uM.
Experiment [15] has as its target Mitogen-activated protein kinase kinase kinase 3 (Homo sapiens) (UniProt Q99759). As to the kind of experiment: Inhibition of MAP3K3 conserved Lys2 (DIKGANILR) in human PBMC at 0.1 uM.
The target of experiment [16] is T2, Serine/threonine-protein kinase ULK3 (Homo sapiens) (UniProt Q6PHR2).
T2 sequence (whole entry): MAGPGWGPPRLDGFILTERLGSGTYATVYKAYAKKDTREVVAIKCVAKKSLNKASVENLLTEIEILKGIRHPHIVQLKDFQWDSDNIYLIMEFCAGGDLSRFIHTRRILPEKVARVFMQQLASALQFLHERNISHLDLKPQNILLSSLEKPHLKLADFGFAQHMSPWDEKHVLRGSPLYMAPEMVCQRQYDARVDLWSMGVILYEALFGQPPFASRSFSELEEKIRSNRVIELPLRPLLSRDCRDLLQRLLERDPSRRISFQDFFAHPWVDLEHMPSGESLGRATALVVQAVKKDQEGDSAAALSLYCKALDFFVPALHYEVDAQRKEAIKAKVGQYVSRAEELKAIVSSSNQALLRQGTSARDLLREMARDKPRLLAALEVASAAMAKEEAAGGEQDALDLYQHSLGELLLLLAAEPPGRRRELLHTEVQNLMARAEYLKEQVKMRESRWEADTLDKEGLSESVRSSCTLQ
Kind of experiment: Inhibition of ULK3 conserved Lys2 (NISHLDLKPQNILLSSLEKPHLK) in human PBMC at 1 uM.

In experiment [17] the target is Serine/threonine-protein kinase Nek1 (Homo sapiens) (UniProt Q96PY6). Kind of experiment: Inhibition of NEK1 conserved Lys2 (DIKSQNIFLTK) in human PBMC at 0.1 uM.
Sequence of Serine/threonine-protein kinase Nek1 (Homo sapiens) (Q96PY6 whole entry): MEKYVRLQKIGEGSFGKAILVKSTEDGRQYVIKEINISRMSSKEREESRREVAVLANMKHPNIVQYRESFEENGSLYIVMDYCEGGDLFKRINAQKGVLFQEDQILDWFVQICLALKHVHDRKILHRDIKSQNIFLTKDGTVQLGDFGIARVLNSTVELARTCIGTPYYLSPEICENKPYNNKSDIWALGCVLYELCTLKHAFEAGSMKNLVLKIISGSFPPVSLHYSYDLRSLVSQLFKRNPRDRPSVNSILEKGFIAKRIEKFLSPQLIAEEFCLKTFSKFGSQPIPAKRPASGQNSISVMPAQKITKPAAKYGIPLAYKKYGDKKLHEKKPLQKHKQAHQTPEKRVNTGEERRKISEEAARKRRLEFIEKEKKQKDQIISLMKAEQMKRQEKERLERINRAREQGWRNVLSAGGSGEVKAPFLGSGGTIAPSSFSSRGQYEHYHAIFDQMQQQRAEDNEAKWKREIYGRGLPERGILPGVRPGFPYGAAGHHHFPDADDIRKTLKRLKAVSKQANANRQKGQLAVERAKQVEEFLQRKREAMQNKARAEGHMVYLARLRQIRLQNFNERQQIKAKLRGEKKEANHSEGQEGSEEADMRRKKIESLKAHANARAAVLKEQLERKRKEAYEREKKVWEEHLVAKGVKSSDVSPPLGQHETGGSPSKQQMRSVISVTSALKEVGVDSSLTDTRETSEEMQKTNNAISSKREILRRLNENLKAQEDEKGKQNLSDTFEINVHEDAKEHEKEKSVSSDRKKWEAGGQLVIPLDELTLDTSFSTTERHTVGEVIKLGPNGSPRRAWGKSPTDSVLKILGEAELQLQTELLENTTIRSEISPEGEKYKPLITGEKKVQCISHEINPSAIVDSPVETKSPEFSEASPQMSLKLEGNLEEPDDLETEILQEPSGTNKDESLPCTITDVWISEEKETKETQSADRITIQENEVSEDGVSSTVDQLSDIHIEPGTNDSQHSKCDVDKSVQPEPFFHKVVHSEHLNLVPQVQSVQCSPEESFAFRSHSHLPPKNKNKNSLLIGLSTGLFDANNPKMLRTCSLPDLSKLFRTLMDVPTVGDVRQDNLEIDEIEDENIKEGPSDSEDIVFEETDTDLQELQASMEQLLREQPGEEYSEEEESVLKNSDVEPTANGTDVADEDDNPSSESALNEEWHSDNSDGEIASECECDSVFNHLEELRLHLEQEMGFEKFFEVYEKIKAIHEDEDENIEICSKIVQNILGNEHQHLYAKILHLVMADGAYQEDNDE

Sequence of MAP/microtubule affinity-regulating kinase 3 (Homo sapiens) (P27448 whole entry, looked up): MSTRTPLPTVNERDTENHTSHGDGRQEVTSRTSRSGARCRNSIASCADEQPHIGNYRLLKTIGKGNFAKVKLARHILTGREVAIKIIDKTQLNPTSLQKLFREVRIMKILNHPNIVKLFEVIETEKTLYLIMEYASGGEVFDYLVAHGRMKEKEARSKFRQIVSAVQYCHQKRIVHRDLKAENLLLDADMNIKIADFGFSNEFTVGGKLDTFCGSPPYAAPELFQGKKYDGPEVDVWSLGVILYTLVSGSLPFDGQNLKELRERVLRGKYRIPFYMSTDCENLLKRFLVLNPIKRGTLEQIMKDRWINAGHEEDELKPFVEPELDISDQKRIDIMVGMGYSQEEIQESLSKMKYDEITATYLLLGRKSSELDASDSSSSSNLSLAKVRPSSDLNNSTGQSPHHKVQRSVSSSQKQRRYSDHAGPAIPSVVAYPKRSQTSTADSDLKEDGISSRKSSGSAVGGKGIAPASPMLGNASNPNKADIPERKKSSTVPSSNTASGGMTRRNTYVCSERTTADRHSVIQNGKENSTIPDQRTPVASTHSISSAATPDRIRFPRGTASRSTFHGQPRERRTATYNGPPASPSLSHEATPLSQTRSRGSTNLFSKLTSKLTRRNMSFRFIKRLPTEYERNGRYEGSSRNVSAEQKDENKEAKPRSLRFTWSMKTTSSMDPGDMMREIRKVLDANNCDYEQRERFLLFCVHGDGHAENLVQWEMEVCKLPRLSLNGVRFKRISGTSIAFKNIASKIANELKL
Sequence of Serine/threonine-protein kinase WNK3 (Homo sapiens) (Q9BYP7 whole entry): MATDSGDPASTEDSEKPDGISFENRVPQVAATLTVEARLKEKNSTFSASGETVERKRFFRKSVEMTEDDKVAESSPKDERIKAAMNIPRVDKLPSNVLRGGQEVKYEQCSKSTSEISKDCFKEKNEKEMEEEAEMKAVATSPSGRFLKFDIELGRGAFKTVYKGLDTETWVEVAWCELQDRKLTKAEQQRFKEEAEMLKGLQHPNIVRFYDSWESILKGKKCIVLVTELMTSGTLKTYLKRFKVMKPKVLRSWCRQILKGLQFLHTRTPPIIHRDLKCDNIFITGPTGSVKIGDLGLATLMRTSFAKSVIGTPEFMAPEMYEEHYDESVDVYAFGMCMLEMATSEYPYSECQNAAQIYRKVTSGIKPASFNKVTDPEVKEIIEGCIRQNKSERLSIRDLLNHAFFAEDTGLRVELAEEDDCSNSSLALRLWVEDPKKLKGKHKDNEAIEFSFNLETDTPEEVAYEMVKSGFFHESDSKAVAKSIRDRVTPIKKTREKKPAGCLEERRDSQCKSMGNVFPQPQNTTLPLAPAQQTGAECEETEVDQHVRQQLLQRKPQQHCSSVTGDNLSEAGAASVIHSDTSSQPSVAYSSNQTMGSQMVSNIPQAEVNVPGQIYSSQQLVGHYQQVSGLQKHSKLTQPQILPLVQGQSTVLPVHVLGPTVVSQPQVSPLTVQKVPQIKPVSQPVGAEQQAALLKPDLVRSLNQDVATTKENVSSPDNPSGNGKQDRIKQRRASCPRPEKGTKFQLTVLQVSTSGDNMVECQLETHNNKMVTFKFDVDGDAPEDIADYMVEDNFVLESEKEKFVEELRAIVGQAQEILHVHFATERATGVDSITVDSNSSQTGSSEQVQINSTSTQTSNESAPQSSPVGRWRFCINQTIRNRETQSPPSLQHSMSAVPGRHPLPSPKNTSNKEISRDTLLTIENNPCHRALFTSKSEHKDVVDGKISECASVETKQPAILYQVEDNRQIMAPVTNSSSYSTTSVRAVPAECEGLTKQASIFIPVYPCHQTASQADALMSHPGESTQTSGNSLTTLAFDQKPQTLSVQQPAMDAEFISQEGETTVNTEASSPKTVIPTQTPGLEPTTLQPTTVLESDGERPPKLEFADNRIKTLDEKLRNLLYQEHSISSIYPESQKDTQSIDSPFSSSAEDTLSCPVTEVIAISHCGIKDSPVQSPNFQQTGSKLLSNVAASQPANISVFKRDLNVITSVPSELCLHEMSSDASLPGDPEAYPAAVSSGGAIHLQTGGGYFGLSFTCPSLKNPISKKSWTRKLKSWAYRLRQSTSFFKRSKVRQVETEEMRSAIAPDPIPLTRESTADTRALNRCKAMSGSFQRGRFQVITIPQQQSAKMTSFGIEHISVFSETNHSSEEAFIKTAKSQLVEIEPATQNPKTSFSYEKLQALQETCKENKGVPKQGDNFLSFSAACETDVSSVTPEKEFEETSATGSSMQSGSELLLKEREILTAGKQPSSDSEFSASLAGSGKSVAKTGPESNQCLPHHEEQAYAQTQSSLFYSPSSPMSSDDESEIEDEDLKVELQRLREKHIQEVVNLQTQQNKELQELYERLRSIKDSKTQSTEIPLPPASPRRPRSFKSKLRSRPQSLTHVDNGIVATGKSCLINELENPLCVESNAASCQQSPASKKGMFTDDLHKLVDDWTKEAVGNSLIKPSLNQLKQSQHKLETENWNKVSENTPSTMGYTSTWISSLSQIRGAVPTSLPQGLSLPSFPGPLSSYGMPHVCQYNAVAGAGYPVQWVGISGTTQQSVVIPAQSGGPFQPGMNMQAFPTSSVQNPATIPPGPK
Sequence of Calcium/calmodulin-dependent protein kinase type II subunit gamma (Homo sapiens) (Q13555 whole entry): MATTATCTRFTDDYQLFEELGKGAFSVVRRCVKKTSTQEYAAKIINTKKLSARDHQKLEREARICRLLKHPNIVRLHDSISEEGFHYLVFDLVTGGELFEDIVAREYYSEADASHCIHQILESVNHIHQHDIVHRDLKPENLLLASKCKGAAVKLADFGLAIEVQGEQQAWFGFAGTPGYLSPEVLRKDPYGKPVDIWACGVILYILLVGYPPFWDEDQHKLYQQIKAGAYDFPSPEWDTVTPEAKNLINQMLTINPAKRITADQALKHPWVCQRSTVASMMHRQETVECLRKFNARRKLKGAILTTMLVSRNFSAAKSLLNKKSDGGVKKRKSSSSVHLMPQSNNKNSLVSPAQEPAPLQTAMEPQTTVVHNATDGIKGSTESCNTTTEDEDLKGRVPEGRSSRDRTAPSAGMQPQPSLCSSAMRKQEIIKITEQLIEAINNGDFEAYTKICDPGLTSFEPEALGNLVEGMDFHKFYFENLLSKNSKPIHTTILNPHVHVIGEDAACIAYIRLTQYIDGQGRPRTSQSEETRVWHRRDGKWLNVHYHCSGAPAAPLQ
Sequence of Ribosomal protein S6 kinase beta-2 (Homo sapiens) (Q9UBS0 whole entry): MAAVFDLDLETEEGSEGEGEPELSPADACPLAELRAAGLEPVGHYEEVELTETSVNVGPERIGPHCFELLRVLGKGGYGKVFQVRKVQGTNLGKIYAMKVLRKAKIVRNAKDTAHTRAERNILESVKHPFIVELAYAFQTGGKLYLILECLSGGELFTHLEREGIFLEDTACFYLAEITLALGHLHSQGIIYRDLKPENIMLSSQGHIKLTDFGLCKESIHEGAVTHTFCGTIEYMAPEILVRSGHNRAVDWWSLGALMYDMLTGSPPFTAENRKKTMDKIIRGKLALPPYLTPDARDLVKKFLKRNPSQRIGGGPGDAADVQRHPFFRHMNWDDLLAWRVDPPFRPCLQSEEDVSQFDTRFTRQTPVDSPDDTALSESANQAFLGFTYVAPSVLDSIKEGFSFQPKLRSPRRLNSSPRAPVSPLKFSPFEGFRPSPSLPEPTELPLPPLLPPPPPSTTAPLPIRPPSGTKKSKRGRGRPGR

As for `CC(C)n1cc(-c2cc(-c3ccc(CN4CCOCC4)cc3)cnc2N)nn1`, the inhibition in experiment [1] was 10.8%; in [2], -0.5%; in [3], 17.1%; in [4], -5.6%; in [5], 26%; in experiment [6] it was -6.7%. The inhibition is 9.7% in experiment [7]; -4.5% in experiment [8]; -3.8% in [9]; -2.5% in experiment [10]; 10.9% in experiment [11]; 2.2% in experiment [12]. Moreover, the inhibition was 6.6% in experiment [13]; -7.8% in experiment [14]; 23.2% in experiment [15]; 40.8% in experiment [16]; 5.5% in experiment [17].
